# According to PMC9653409, “Generative deep learning enables the discovery of a potent and selective RIPK1 inhibitor” (Nature Communications, 2022):
# Assays:
# Assay in all cases: Kinase inhibitory activity profiling of RI-962@10 µM (406 kinases, Eurofins)
# Assay type in all cases: biochemical
# [1] = target: panel of human kinases (kinase named in endpoint) (Homo sapiens, UniProt O75385); settings: 10 µM; read-out: Activity (%), ULK1(h)
# Outline: (§1)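 Radiometric filter-binding kinase assays: enzyme preincubated 15 min with compound in 8 mM MOPS pH 7.0, 0.2 mM EDTA, 250 μM peptide substrate, 10 mM magnesium acetate, 10 μM [γ-33P]-ATP. Reaction started with Mg/ATP, run 40 min at room temperature, stopped with phosphoric acid; 33P incorporation read by scintillation counting. Other kinases by similar protocols.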
# [2] = target: panel of human kinases (kinase named in endpoint) (Homo sapiens, UniProt O75914); settings: 10 µM; read-out: Activity (%), PAK3(h)
# panel of human kinases (kinase named in endpoint) (Homo sapiens, UniProt O75914), sequence (O75914 whole entry): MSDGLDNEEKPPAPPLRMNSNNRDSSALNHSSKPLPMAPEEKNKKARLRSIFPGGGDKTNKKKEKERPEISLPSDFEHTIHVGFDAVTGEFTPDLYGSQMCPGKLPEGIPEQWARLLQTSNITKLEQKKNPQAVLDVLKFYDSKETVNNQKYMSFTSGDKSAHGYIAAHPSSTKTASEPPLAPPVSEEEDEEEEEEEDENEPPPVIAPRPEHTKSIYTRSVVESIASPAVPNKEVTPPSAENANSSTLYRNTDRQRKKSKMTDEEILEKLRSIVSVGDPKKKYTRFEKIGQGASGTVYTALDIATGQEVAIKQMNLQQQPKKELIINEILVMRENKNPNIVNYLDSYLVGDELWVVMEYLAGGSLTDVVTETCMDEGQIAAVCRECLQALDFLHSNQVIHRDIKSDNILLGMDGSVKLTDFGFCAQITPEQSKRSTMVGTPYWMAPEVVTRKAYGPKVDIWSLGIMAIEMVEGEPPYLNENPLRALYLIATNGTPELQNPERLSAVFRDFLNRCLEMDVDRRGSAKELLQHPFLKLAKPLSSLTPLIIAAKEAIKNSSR
# Outline: as §1
# [3] = target: panel of human kinases (kinase named in endpoint) (Homo sapiens, UniProt P00533); settings: 10 µM; read-out: Activity (%), EGFR(h)
# Outline: as §1
# [4] = target: panel of human kinases (kinase named in endpoint) (Homo sapiens, UniProt P10721, V654A); settings: 10 µM; read-out: Activity (%), cKit(V654A)(h)
# Outline: as §1
# [5] = target: panel of human kinases (kinase named in endpoint) (Homo sapiens, UniProt P24723); settings: 10 µM; read-out: Activity (%), PKCη(h)
# panel of human kinases (kinase named in endpoint) (Homo sapiens, UniProt P24723), sequence (P24723 whole entry): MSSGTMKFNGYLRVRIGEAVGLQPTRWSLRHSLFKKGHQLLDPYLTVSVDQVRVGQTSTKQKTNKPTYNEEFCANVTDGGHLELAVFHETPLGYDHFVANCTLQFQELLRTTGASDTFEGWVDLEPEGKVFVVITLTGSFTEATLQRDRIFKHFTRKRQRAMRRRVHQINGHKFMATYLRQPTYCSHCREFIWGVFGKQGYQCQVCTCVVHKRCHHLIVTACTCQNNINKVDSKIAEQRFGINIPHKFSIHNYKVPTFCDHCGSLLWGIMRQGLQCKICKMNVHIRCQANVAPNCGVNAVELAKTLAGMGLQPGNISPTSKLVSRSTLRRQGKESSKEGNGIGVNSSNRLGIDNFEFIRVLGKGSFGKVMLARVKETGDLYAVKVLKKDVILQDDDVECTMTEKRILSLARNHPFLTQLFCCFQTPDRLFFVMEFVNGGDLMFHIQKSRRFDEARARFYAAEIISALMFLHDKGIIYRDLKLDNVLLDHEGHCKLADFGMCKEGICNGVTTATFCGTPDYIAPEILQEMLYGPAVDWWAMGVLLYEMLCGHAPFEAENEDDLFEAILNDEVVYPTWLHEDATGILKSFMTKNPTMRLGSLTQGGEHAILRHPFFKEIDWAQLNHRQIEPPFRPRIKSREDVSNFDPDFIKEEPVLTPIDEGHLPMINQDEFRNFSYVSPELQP
# Outline: as §1
# [6] = target: panel of human kinases (kinase named in endpoint) (Homo sapiens, UniProt P29317); settings: 10 µM; read-out: Activity (%), EphA2(h)
# Outline: as §1
# [7] = target: panel of human kinases (kinase named in endpoint) (Homo sapiens, UniProt P29320); settings: 10 µM; read-out: Activity (%), EphA3(h)
# Outline: as §1
# [8] = target: panel of human kinases (kinase named in endpoint) (Homo sapiens, UniProt P29597); settings: 10 µM; read-out: Activity (%), TYK2(h)
# Outline: as §1
# [9] = target: panel of human kinases (kinase named in endpoint) (Homo sapiens, UniProt P36888, D835Y); settings: 10 µM; read-out: Activity (%), Flt3(D835Y)(h)
# Outline: as §1
# [10] = target: panel of human kinases (kinase named in endpoint) (Homo sapiens, UniProt P36896); settings: 10 µM; read-out: Activity (%), ALK4(h)
# panel of human kinases (kinase named in endpoint) (Homo sapiens, UniProt P36896), sequence (P36896 24-505): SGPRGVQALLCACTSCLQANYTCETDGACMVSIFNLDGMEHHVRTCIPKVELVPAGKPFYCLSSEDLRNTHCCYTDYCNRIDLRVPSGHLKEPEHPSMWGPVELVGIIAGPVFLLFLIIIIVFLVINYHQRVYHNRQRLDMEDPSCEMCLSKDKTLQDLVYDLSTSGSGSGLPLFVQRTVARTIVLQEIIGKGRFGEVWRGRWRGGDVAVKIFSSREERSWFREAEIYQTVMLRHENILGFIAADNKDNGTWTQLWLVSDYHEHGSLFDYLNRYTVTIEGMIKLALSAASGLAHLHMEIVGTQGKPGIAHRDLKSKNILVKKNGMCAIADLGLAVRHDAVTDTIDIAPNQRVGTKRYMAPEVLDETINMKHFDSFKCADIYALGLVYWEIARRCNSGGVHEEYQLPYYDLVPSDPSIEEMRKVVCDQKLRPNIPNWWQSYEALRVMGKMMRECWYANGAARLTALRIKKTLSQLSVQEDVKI
# Outline: as §1
# [11] = target: panel of human kinases (kinase named in endpoint) (Homo sapiens, UniProt P41240); settings: 10 µM; read-out: Activity (%), CSK(h)
# Outline: as §1
# [12] = target: panel of human kinases (kinase named in endpoint) (Homo sapiens, UniProt P50613); settings: 10 µM; read-out: Activity (%), CDK7/cyclinH/MAT1(h)
# panel of human kinases (kinase named in endpoint) (Homo sapiens, UniProt P50613), sequence (P50613 whole entry): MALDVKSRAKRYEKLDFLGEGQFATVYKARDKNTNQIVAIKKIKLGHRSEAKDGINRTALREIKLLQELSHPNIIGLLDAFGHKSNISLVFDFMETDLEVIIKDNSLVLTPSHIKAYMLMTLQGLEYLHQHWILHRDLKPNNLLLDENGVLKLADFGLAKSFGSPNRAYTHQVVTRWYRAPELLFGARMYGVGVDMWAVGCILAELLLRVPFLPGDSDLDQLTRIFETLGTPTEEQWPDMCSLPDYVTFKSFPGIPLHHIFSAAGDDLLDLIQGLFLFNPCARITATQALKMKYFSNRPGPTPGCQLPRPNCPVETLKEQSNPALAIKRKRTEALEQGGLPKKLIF
# Outline: as §1
# [13] = target: panel of human kinases (kinase named in endpoint) (Homo sapiens, UniProt P51451); settings: 10 µM; read-out: Activity (%), Blk(h)
# Outline: as §1
# [14] = target: panel of human kinases (kinase named in endpoint) (Homo sapiens, UniProt Q07912); settings: 10 µM; read-out: Activity (%), ACK1(h)
# Outline: as §1
# [15] = target: panel of human kinases (kinase named in endpoint) (Homo sapiens, UniProt Q12851); settings: 10 µM; read-out: Activity (%), GCK(h)
# Outline: as §1
# [16] = target: panel of human kinases (kinase named in endpoint) (Homo sapiens, UniProt Q13557); settings: 10 µM; read-out: Activity (%), CaMKIIδ(h)
# Outline: as §1
# [17] = target: panel of human kinases (kinase named in endpoint) (Homo sapiens, UniProt Q15375); settings: 10 µM; read-out: Activity (%), EphA7(h)
# Outline: as §1
# [18] = target: panel of human kinases (kinase named in endpoint) (Homo sapiens, UniProt Q16539, T106M); settings: 10 µM; read-out: Activity (%), SAPK2a(T106M)(h)
# panel of human kinases (kinase named in endpoint) (Homo sapiens, UniProt Q16539, T106M), sequence (Q16539 whole entry T106M): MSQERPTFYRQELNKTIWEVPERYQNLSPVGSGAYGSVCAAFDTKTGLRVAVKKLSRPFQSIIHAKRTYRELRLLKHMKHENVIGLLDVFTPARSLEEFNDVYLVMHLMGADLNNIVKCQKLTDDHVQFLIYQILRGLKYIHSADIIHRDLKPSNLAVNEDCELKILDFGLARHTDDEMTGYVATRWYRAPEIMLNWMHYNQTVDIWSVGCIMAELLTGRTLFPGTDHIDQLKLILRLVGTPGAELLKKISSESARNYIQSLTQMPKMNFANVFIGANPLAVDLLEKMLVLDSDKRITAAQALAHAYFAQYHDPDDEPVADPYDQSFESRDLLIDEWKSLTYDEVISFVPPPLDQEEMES
# Outline: as §1
# [19] = target: panel of human kinases (kinase named in endpoint) (Homo sapiens, UniProt Q16566); settings: 10 µM; read-out: Activity (%), CaMKIV(h)
# Outline: as §1
# [20] = target: panel of human kinases (kinase named in endpoint) (Homo sapiens, UniProt Q52WX2); settings: 10 µM; read-out: Activity (%), SBK1(h)
# panel of human kinases (kinase named in endpoint) (Homo sapiens, UniProt Q52WX2), sequence (Q52WX2 whole entry): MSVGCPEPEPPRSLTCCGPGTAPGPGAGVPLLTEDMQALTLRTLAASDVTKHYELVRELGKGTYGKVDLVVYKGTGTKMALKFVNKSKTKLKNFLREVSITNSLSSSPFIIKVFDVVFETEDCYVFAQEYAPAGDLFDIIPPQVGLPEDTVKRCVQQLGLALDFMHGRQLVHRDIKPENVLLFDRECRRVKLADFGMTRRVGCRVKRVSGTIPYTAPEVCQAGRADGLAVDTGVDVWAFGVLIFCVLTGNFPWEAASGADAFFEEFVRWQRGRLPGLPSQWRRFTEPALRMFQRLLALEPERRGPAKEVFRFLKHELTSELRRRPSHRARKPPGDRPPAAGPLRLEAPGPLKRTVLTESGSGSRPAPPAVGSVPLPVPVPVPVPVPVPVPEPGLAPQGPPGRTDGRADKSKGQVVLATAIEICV
# Outline: as §1
# [21] = target: panel of human kinases (kinase named in endpoint) (Homo sapiens, UniProt Q8IW41); settings: 10 µM; read-out: Activity (%), PRAK(h)
# Outline: as §1
# [22] = target: panel of human kinases (kinase named in endpoint) (Homo sapiens, UniProt Q8TDX7); settings: 10 µM; read-out: Activity (%), NEK7(h)
# panel of human kinases (kinase named in endpoint) (Homo sapiens, UniProt Q8TDX7), sequence (Q8TDX7 whole entry): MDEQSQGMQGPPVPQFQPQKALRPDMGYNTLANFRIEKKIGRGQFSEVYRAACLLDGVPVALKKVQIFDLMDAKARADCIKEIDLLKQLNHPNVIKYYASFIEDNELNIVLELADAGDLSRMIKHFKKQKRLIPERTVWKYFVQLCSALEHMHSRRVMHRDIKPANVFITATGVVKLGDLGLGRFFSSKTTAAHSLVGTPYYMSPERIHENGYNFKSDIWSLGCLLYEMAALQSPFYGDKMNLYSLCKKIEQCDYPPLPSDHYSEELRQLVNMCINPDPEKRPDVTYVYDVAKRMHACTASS
# Outline: as §1
# [23] = target: panel of human kinases (kinase named in endpoint) (Homo sapiens, UniProt Q99759); settings: 10 µM; read-out: Activity (%), MEKK3(h)
# Outline: as §1
# [24] = target: panel of human kinases (kinase named in endpoint) (Homo sapiens, UniProt Q9HBH9); settings: 10 µM; read-out: Activity (%), Mnk2(h)
# Outline: as §1
# [25] = target: panel of human kinases (kinase named in endpoint) (Homo sapiens, UniProt Q9NYL2); settings: 10 µM; read-out: Activity (%), ZAK(h)
# panel of human kinases (kinase named in endpoint) (Homo sapiens, UniProt Q9NYL2), sequence (Q9NYL2 whole entry): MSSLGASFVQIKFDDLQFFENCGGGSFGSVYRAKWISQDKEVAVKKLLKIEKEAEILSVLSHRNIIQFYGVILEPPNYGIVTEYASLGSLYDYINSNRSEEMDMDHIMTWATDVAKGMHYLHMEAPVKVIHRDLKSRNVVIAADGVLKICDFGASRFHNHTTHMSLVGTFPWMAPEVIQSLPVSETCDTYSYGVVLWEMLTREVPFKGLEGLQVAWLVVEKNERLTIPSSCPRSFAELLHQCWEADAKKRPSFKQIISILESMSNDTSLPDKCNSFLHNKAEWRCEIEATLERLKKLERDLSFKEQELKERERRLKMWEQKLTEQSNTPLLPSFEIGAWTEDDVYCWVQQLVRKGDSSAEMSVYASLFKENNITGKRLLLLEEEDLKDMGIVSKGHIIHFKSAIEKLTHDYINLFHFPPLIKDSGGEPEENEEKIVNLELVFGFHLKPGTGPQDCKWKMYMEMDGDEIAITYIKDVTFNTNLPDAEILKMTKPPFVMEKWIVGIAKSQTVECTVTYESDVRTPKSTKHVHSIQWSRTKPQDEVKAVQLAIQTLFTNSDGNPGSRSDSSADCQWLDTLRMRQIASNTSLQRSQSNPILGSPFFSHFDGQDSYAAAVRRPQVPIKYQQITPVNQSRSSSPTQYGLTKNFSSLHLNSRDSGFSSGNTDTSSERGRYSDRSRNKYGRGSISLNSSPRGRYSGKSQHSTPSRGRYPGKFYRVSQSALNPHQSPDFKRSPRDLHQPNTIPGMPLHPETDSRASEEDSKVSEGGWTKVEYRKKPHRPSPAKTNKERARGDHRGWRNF
# Outline: as §1
# [26] = target: panel of human kinases (kinase named in endpoint) (Homo sapiens, UniProt Q9Y463); settings: 10 µM; read-out: Activity (%), DYRK1B(h)
# Outline: as §1
# panel of human kinases (kinase named in endpoint) (Homo sapiens, UniProt O75385), sequence (O75385 whole entry): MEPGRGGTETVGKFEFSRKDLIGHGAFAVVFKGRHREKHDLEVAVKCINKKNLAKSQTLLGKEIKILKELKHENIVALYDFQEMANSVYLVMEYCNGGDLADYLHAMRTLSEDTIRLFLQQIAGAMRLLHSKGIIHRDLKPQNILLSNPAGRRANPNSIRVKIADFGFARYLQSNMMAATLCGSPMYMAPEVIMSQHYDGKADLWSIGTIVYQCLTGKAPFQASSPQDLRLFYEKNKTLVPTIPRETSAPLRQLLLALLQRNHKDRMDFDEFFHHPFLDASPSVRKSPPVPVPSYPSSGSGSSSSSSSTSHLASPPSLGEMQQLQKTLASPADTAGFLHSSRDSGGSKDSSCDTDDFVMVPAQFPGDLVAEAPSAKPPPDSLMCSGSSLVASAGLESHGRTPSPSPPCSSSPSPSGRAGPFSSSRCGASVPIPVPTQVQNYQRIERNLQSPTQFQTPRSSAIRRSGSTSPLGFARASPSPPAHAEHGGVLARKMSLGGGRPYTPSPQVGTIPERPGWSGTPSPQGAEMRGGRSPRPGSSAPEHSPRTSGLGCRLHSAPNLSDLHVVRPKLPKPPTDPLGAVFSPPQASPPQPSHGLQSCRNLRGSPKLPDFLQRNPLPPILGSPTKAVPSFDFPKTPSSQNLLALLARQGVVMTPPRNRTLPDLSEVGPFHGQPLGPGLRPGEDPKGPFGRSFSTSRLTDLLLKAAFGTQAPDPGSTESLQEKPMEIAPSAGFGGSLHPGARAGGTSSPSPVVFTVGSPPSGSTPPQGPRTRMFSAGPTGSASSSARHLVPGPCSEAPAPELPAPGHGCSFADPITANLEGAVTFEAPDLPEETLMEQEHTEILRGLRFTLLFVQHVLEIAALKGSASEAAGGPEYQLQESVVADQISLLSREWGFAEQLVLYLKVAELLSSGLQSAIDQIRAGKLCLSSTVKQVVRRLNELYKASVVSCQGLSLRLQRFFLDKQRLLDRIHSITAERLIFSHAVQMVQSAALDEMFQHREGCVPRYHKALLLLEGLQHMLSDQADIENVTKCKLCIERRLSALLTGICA
smiles,measurement,setting,value
CC(C)C(=O)Nc1nc2cc(-c3ccc4c(c3)c(C(=O)NC(C)c3ccccc3)cn4C)ccn2n1 (centres unmarked) [RI-962],activity at 10 µM,[1],69%
same,activity at 10 µM,[2],77%
same,activity at 10 µM,[3],94%
same,activity at 10 µM,[4],85%
same,activity at 10 µM,[5],99%
same,activity at 10 µM,[6],96%
same,activity at 10 µM,[7],105%
same,activity at 10 µM,[8],113%
same,activity at 10 µM,[9],88%
same,activity at 10 µM,[10],90%
same,activity at 10 µM,[11],76%
same,activity at 10 µM,[12],93%
same,activity at 10 µM,[13],96%
same,activity at 10 µM,[14],100%
same,activity at 10 µM,[15],83%
same,activity at 10 µM,[16],92%
same,activity at 10 µM,[17],100%
same,activity at 10 µM,[18],86%
same,activity at 10 µM,[19],77%
same,activity at 10 µM,[20],112%
same,activity at 10 µM,[21],64%
same,activity at 10 µM,[22],85%
same,activity at 10 µM,[23],93%
same,activity at 10 µM,[24],92%
same,activity at 10 µM,[25],72%
same,activity at 10 µM,[26],100%
